Reference: the supplement of paper PMC10307832

Assays:
Assay in all cases: relative viability (nuclei count vs DMSO), 5 days (fraction); higher = more cells survive
Wnt-C59 = compound: CC1=NC=CC(=C1)C2=CC=C(C=C2)CC(=O)NC3=CC=C(C=C3)C4=CN=CC=C4 [Wnt-C59]
Method in brief: (§1)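 After an overnight hold at 37 °C, lung cancer cell lines in 1536-well plates were pinned with five library-drug doses (not always all listed), each √10 from the next, on vehicle-anchored plates. The cells stayed 5 days without fresh medium, then a one-step fix, permeabilisation and Hoechst stain preceded 4× imaging and MetaXpress nuclear counts. A plate passed only with control CV under 25% and at least one doubling. Viability is the median, over plates, of treated-well nuclei relative to vehicle-well nuclei.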

Lapatinib = compound: CS(=O)(=O)CCNCc1ccc(-c2ccc3ncnc(Nc4ccc(OCc5cccc(F)c5)c(Cl)c4)c3c2)o1 [Lapatinib]
Method in brief: as §1

Wnt-C59 + Navitoclax = compound: CC1=NC=CC(=C1)C2=CC=C(C=C2)CC(=O)NC3=CC=C(C=C3)C4=CN=CC=C4 [Wnt-C59] + CC1(C)CCC(c2ccc(Cl)cc2)=C(CN2CCN(c3ccc(C(=O)NS(=O)(=O)c4ccc(N[C@H](CCN5CCOCC5)CSc5ccccc5)c(S(=O)(=O)C(F)(F)F)c4)cc3)CC2)C1 [Navitoclax] (partner 0.5 µM)
Method in brief: (§2)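 Lung cancer cell lines, seeded in 1536-well plates, were treated the following day by pin tool with a single drug or with five library-drug doses (not always all listed) in √10 steps on top of a fixed anchor-drug dose. Cells were fixed and nuclei stained in one step after 5 days, and nuclei were counted. Relative viability is the nuclei count for treated wells divided by that for vehicle wells, reported as medians of duplicate plates.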

Wnt-C59 + Decitabine = compound: CC1=NC=CC(=C1)C2=CC=C(C=C2)CC(=O)NC3=CC=C(C=C3)C4=CN=CC=C4 [Wnt-C59] + Nc1ncn([C@H]2C[C@H](O)[C@@H](CO)O2)c(=O)n1 [Decitabine] (partner 2 µM)
Method in brief: as §2

| Cell Line | relative viability (Wnt-C59; 0.001 µM) | relative viability (Wnt-C59; 0.01 µM) | relative viability (Wnt-C59; 0.03162 µM) | relative viability (Wnt-C59; 0.1 µM) | relative viability (Lapatinib; 0.02 µM) | relative viability (Lapatinib; 0.06325 µM) | relative viability (Lapatinib; 0.2 µM) | relative viability (Lapatinib; 0.6325 µM) | relative viability (Lapatinib; 2 µM) | relative viability (Lapatinib; 2 µM, anchor plate) | relative viability (Wnt-C59 + Navitoclax; first compound 0.001 µM) | relative viability (Wnt-C59 + Navitoclax; first compound 0.01 µM) | relative viability (Wnt-C59 + Navitoclax; first compound 0.03162 µM) | relative viability (Wnt-C59 + Navitoclax; first compound 0.1 µM) | relative viability (Wnt-C59 + Decitabine; first compound 0.001 µM) | relative viability (Wnt-C59 + Decitabine; first compound 0.01 µM) | relative viability (Wnt-C59 + Decitabine; first compound 0.03162 µM) | relative viability (Wnt-C59 + Decitabine; first compound 0.1 µM) |
| --- | --- | --- | --- | --- | --- | --- | --- | --- | --- | --- | --- | --- | --- | --- | --- | --- | --- | --- |
| NCI-H838 | 0.981 | 0.985 | 0.964 | 0.995 | 0.954 | 0.82 | 0.97 | 0.947 | 0.897 | 0.992 | 1.24 | 1.18 | 1.18 | 1.16 | 0.459 | 0.509 | 0.453 | 0.402 |
| NCI-H2126 | 1.02 | 0.976 | 1.03 | 1.04 |  | 0.765 | 0.946 | 0.994 | 0.927 | 0.759 | 0.865 | 0.87 | 0.866 | 0.872 | 0.654 | 0.576 | 0.567 | 0.575 |
| NCI-H1975 | 0.901 | 0.896 | 0.968 | 0.988 | 0.968 | 0.8 | 0.904 | 0.936 | 0.77 | 0.946 | 1.25 | 1.11 | 1.06 | 1.2 | 0.419 | 0.385 | 0.423 | 0.38 |
| NCI-H727 | 1.01 | 0.854 | 0.867 | 0.931 | 0.839 |  | 1.11 | 0.778 | 0.776 | 0.796 | 0.554 | 0.542 | 0.459 | 0.451 | 0.91 | 0.902 | 0.901 | 0.997 |
| A-427 | 0.965 | 0.817 | 1.05 | 1.04 |  | 0.978 | 1 | 0.954 | 0.963 | 1.05 | 0.925 | 0.9 | 0.943 | 1 | 0.623 | 0.564 | 0.615 | 0.588 |
| NCI-H1993 | 0.86 | 0.751 | 1.04 | 0.909 | 0.903 |  | 0.928 | 0.873 | 0.745 | 0.837 | 1.04 | 0.82 | 1.09 | 0.972 | 0.597 | 0.594 | 0.64 | 0.66 |
| NCI-H441 | 1.11 | 1.22 | 1.1 | 0.993 |  | 0.735 | 0.995 | 1.09 | 1.36 |  | 0.709 | 1.06 | 0.743 | 0.517 | 0.232 | 0.226 | 0.246 | 0.166 |
| NCI-H1437 | 0.997 | 0.997 | 1 | 1.03 | 0.919 | 0.988 | 0.987 | 0.914 | 0.918 | 0.794 | 1.16 | 1.03 | 1.16 | 1.09 | 0.584 | 0.562 | 0.559 | 0.614 |
| BEN | 0.936 | 1 | 1.02 | 1.07 | 0.793 | 0.907 | 0.935 | 1 | 0.962 | 0.74 | 0.0424 | 0.0676 | 0.0835 | 0.0708 | 0.667 | 0.741 | 0.807 | 0.782 |
| LOU-NH91 | 0.978 | 0.892 | 0.955 | 1.04 | 0.569 | 0.785 | 0.844 | 0.844 | 0.74 | 0.799 | 0.823 | 0.573 | 0.638 | 0.713 | 0.873 | 0.838 | 0.83 | 0.822 |
| PC-3 [JPC-3] | 1.04 | 1.06 | 1.05 | 1.14 |  | 1 | 0.991 | 0.977 | 0.755 | 0.46 | 0.868 | 0.815 | 0.933 | 0.809 | 0.853 | 0.847 | 0.849 | 0.841 |
| NCI-H1355 | 1.02 | 0.885 | 1.01 | 0.905 |  | 0.828 | 0.938 | 0.972 | 0.746 | 1 | 1.01 | 0.876 | 0.905 | 0.88 | 0.361 | 0.354 | 0.349 | 0.337 |
| NCI-H520 | 1.1 | 0.95 | 0.901 | 1.07 | 0.987 | 0.93 | 1.03 | 1.09 | 0.998 | 0.848 | 1.11 | 1.13 | 1.11 | 1.05 | 0.48 | 0.532 | 0.537 | 0.504 |
| SK-LU-1 | 1 | 0.987 | 1.01 | 1.01 | 0.799 | 0.89 | 1.01 | 1.11 | 1.03 | 0.85 | 0.893 | 0.832 | 1.02 | 0.893 | 0.657 | 0.675 | 0.694 | 0.657 |
| EKVX | 1.03 | 0.759 | 1.01 | 0.832 | 0.645 | 0.755 | 0.943 | 0.811 | 0.336 | 0.216 | 0.991 | 0.87 | 0.896 | 0.788 | 0.313 |  | 0.417 | 0.374 |
| HCC-78 | 0.814 | 1.02 | 0.99 | 1.12 |  | 0.734 | 0.922 | 0.935 | 0.793 | 0.801 | 0.781 | 0.729 | 0.731 | 0.452 | 0.695 | 0.754 | 0.734 | 0.641 |
| NCI-H2085 | 1.02 | 0.98 | 1 | 0.953 | 0.83 | 0.854 | 0.958 | 0.937 | 0.859 | 0.773 | 1.28 | 1.15 | 1.23 | 1.05 | 0.623 | 0.571 | 0.494 | 0.601 |
| NCI-H23 | 0.827 | 0.972 | 1.01 | 1 |  |  | 1.02 | 1.06 | 0.938 | 1.11 | 0.723 | 0.775 | 1.04 | 0.805 | 0.292 | 0.29 | 0.35 | 0.325 |
